This note sets out measurements from patent US20110319431A1, “Bis Aromatic Compounds for Use as LTC4 Synthase Inhibitors” (BIOLIPOX AB, priority 2009, published 2011).

One assay addresses T1, Recombinant human LTC4 synthase (Homo sapiens, UniProt Q16873).
T1 construct: made in house; host or cells: Pichia pastoris
T1 sequence (Q16873 1-150): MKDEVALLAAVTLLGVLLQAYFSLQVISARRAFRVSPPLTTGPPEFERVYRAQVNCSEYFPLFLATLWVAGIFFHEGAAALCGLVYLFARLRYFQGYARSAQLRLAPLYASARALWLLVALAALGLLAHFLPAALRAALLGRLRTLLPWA
In words: In vitro LTC4 synthase assay (LTA4 to LTC4, HTRF detection). It is filed as biochemical. Conditions: 5 min; total concentration of title compounds in the assay 10 μM. On the procedure: In the assay, LTC4 synthase catalyses the reaction where the substrate LTA4 is converted to LTC4. Recombinant human LTC4 synthase is expressed in Piccia pastoralis and the purified enzyme is dissolved in 25 mM tris-buffer pH 7.8 supplemented with 0.1 mM glutathione (GSH) and stored at −80° C. The assay is performed in phosphate buffered saline (PBS) pH 7.4 and 5 mM GSH in 384-well plates.
The following is added chronologically to each well:
1. 48 μL LTC4 synthase in PBS with 5 mM GSH. The total protein concentration in this solution is 0.5 μg/mL. 2. 1 μL inhibitor in DMSO (final concentration 10 μM). 3. Incubation of the plate at room temperature for 10 min. 4. 1 μL LTA4 (final concentration 2.5 μM). 5. Incubation of the plate at room temperature for 5 min. 6. 10 μL of the incubation mixture is analysed using homogenous time resolved fluorescent (HTRF) detection.
For orientation: TR-FRET usually uses a lanthanide donor and a delayed reading to cut background.
`CCCCCCS(=O)(=O)c1ccc(C(=O)c2ccc(N(C)c3ccc(Cl)cc3)cc2)cc1C(=O)O` [Example 3:1, 5-{4-[(4-Chlorophenyl)(methyl)amino]benzoyl}-2-(1-hexylsulfonyl)benzoic acid]: the inhibition – broadly, the relative decrease from the control value, in per cent – at 10 µM is 97%.

In the case of `CN(c1ccc(Cl)cc1)c1ccc(C(=O)c2ccc([S+]([O-])c3ccc(F)c(F)c3)c(C(=O)O)c2)cc1` (stereo not drawn) [1:3, 5-{4-[(4-Chlorophenyl)(methyl)amino]benzoyl}2-(3,4-difluorophenylsulfinyl)-benzoic acid], the inhibition at 10 µM came out at 100%.

The assay is the same for the next values; noted with them: Table 4, title compounds of Example 4.
Consider `COc1ccc(Sc2cc(C(=O)O)cc(C(=O)c3ccc(N(C)c4ccc(Cl)cc4)cc3)c2)cc1OC` [4:7, 3-{4-[(4-Chlorophenyl)(methyl)amino]benzoyl}-5-(3,4-dimethoxyphenyl-sulfanyl)benzoic acid], for which the IC50 (commonly the concentration at which inhibition is half-maximal) was determined as 328 nM.

`CN(c1ccc(Cl)cc1)c1ccc(C(=O)c2cc(Sc3cccc(Cl)c3)cc(C(=O)O)c2)cc1` [4:6, 3-{4-[(4-Chlorophenyl)(methyl)amino]benzoyl}-5-(3-chlorophenyl-sulfanyl)benzoic acid]: the IC50 came to 165 nM.

Still in this assay, the particulars now being: title compounds of the Examples.
In the case of `O=C(c1ccc(Sc2cccc(C(F)(F)F)c2)c(C(=O)O)c1)c1ccc(N(CC2CC2)c2ccc(Cl)cc2)cn1` [2:12, 5-{5-[(4-Chlorophenyl)cyclopropylmethylamino]pyridine-2-carbonyl}-2-(3-trifluoromethylphenylsulfanyl)benzoic acid], the IC50 came out at 76 nM.

Turning to `CCCCCCS(=O)(=O)c1ccc(C(=O)c2ccc(N(C)c3ccc(Cl)cc3)cc2)cc1C(=O)O` [Example 3:1, 5-{4-[(4-Chlorophenyl)(methyl)amino]benzoyl}-2-(1-hexylsulfonyl)benzoic acid], the IC50 worked out at 398 nM.

With `CN(c1ccc(Cl)cc1)c1ccc(C(=O)c2cc(Sc3cccc(OC(F)(F)F)c3)cc(C(=O)O)c2)cc1` [2:28, 3-(4-((4-Chlorophenyl)(methyl)amino)benzoyl)-5-(3-(trifluoromethoxy)phenylsulfanyl)benzoic acid], the IC50 was 148 nM.

In the case of `COc1cccc(Sc2cc(C(=O)O)cc(C(=O)c3ccc(N(C)c4ccc(Cl)cc4)cc3)c2)c1` [2:25, 3-(4-((4-Chlorophenyl)(methyl)amino)benzoyl)-5-(3-methoxyphenylsulfanyl)benzoic acid], the IC50 is 143 nM.

`O=C(c1ccc(Sc2ccc(Br)cc2)c(C(=O)O)c1)c1ccc(N(CC2CC2)c2ccc(Cl)cc2)cn1` [2:17, 2-(4-Bromophenylsulfanyl)-5-{5-[(4-chlorophenyl)cyclopropylmethyl-amino]pyridine-2-carbonyl}benzoic acid]: the 50% inhibitory concentration (IC50) is 102 nM.

`O=C(c1ccc(Sc2ccccc2)c(C(=O)O)c1)c1ccc(N(CC2CC2)c2ccc(Cl)cc2)cn1` [2:14, 5-{5-[(4-Chlorophenyl)cyclopropylmethylamino]pyridine-2-carbonyl}-2-phenylsulfanylbenzoic acid]: the IC50 stood at 47 nM.

Consider `O=C(c1ccc(Sc2ccc(C(F)(F)F)cc2)c(C(=O)O)c1)c1ccc(N(CC2CC2)c2ccc(Cl)cc2)cn1` [2:13, 5-{5-[(4-Chlorophenyl)cyclopropylmethylamino]pyridine-2-carbonyl}-2-(4-trifluoromethylphenylsulfanyl)benzoic acid], for which the IC50 is 129 nM.

As for `O=C(c1ccc(N(CC2CC2)c2ccc(Cl)cc2)cc1)c1ccc([S+]([O-])c2ccccc2)c(C(=O)O)c1` (stereo not drawn) [Example 1:11, 5-{4-[(4-Chlorophenyl)(cyclopropylmethyl)amino]benzoyl}-2-phenylsulfinyl-benzoic acid], the IC50 amounted to 26 nM.

Regarding `O=C(c1ccc([S+]([O-])c2cccc(C(F)(F)F)c2)c(C(=O)O)c1)c1ccc(N(CC2CC2)c2ccc(Cl)cc2)cn1` (stereo not drawn) [1:15, 5-{5-[(4-Chlorophenyl)cyclopropylmethylamino]pyridine-2-carbonyl}-2-(3-tri-fluoromethylphenylsulfinyl)benzoic acid], the IC50 came out at 28 nM.

As to `CN(c1ccc(Cl)cc1)c1ccc(C(=O)c2ccc([S+]([O-])c3ccc(F)c(F)c3)c(C(=O)O)c2)cc1` (stereo not drawn) [1:3, 5-{4-[(4-Chlorophenyl)(methyl)amino]benzoyl}2-(3,4-difluorophenylsulfinyl)-benzoic acid], the IC50 was 107 nM.

Staying with this assay, now noted: value printed in the text of Example 4:1.
Regarding `CN(c1ccc(Cl)cc1)c1ccc(C(=O)c2cc(C(=O)O)cc([S+]([O-])c3ccc(F)c(F)c3)c2)cc1` (stereo not drawn) [Example 4:1, 3-{4-[(4-Chlorophenyl)(methyl)amino]benzoyl}-5-(3,4-difluorophenylsulfinyl)-benzoic acid], the IC50 worked out at 212 nM.
